What was measured:
[1] = system: Phosphorylation of ERK1/2 in MIA PaCa-2 cells; experiment: Phospho-ERK1/2 MSD assay in MIA PaCa-2 cells; format: cell-based; conditions: Homo sapiens, MIA PaCa-2, 2 h, read-out: p-ERK IC50 (2 h, MiaPaCa-2; μM), 2 h compound treatment, MIA PaCa-2 cells, EGF stimulated
Outline: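 Phospho-ERK1/2 measured by MSD electrochemiluminescence kit in RIPA lysates of MIA PaCa-2 cells. Cells were treated with compound titrations for 2 or 4 h at 37 °C, 5% CO2, followed by a 10 min pulse of 10 ng/mL EGF.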

[2] = system: Phosphorylation of ERK1/2 in A549 cells; experiment: Phospho-ERK1/2 MSD assay in A549 cells; format: cell-based; conditions: Homo sapiens, A549, 2 h, read-out: p-ERK IC50 (2 h, A549; μM), 2 h compound treatment, A549 cells, EGF stimulated
Outline: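 Phospho-ERK1/2 was quantified by MSD immunoassay in RIPA lysates of MIA PaCa-2 or A549 cells. Before lysis, cells received 10 ng/mL EGF for 10 min after 2 or 4 h exposure at 37° C. to a compound concentration series.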

[3] = biological target: GDP-bound KRAS protein (aa 1-169), containing both G12C and C118A amino acid substitutions (Homo sapiens (Human), UniProt P01116, C118A/G12C); experiment: Coupled nucleotide exchange assay (SOS-mediated nucleotide exchange, AlphaScreen); format: biochemical; conditions: read-out: Coupled exchange IC50 (5 min; μM); 5 min compound pre-incubation
Chain of GDP-bound KRAS protein (aa 1-169), containing both G12C and C118A amino acid substitutions (P01116 other isoform, or with tags, fused parts or gaps G12C/C118A): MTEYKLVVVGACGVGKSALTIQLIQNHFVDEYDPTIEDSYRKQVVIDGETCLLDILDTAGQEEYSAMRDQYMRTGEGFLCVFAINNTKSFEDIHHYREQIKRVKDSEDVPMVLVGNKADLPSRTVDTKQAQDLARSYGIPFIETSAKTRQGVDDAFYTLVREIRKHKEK

## C=CC(=O)N1C[C@H](C)N(c2nc(=O)n(-c3c(C)ccnc3C(C)C)c3nc(-c4ccccc4C(=O)O)c(Cl)cc23)C[C@H]1C (atropisomer, axis not shown; (M)) [Example 92-29, (M)-2-[6-Chloro-4-[(2S,5R)-2,5-dimethyl-4-prop-2-enoyl-piperazin-1-yl]-1-(2-isopropyl-4-methyl-3-pyridyl)-2-oxo-pyrido[2,3-d]pyrimidin-7-yl]benzoic acid]
[1]
  IC50: 10 µM
[2]
  IC50: > 7.5 µM
[3]
  IC50: 0.139 µM

## C=CC(=O)N1C[C@H](C)N(c2nc(=O)n(-c3c(C)ccnc3C(C)C)c3nc(-c4cc(F)c(F)cc4N)c(Cl)cc23)C[C@H]1C (atropisomer, axis not shown; (M)) [Example 92-31, (M)-7-(2-Amino-4,5-difluoro-phenyl)-6-chloro-4-[(2S,5R)-2,5-dimethyl-4-prop-2-enoyl-piperazin-1-yl]-1-(2-isopropyl-4-methyl-3-pyridyl)pyrido [2,3-d]pyrimidin-2-one]
[1]
  IC50: 0.022 µM
[2]
  IC50: > 7.5 µM
[3]
  IC50: 0.014 µM

## C=CC(=O)N1C[C@H](C)N(c2nc(=O)n(-c3c(C)ccnc3C(C)C)c3nc(-c4ccccc4NS(C)(=O)=O)c(Cl)cc23)C[C@H]1C (atropisomer, axis not shown; (M)) [Example 92-32, (M)-N-[2-[6-Chloro-4-[(2S,5R)-2,5-dimethyl-4-prop-2-enoyl-piperazin-1-yl]-1-(2-isopropyl-4-methyl-3-pyridyl)-2-oxo-pyrido[2,3-d]pyrimidin-7-yl]phenyl] methanesul-fonamide]
[1]
  IC50: 0.129 µM
[2]
  IC50: > 7.5 µM
[3]
  IC50: 0.075 µM

## C=CC(=O)N1C[C@H](C)N(c2nc(=O)n(-c3c(C)ccnc3C(C)C)c3nc(-c4ccccc4S(N)(=O)=O)c(Cl)cc23)C[C@H]1C (atropisomer, axis not shown; (M)) [Example 92-33, (M)-2-[6-Chloro-4-[(2S,5R)-2,5-dimethyl-4-prop-2-enoyl-piperazin-1-yl]-1-(2-isopropyl-4-methyl-3-pyridyl)-2-oxo-pyrido[2,3-d]pyrimidin-7-yl] benzenesul-fonamide]
[1]
  IC50: 0.216 µM
[2]
  IC50: > 7.5 µM
[3]
  IC50: 0.113 µM

## C=CC(=O)N1C[C@H](C)N(c2nc(=O)n(-c3c(C)ccnc3C(C)C)c3nc(-c4cc(O)ccc4F)c(Cl)cc23)C[C@H]1C (atropisomer, axis not shown; (M)) [Example 92-34, (M)-6-Chloro-4-[(2S,5R)-2,5-dimethyl-4-prop-2-enoyl-piperazin-1-yl]-7-(2-fluoro-5-hydroxy-phenyl)-1-(2-isopropyl-4-methyl-3-pyridyl)pyrido [2,3-d]pyrimidin-2-one]
[1]
  IC50: 0.06 µM
[2]
  IC50: > 7.5 µM
[3]
  IC50: 0.054 µM

## C=CC(=O)N1C[C@H](C)N(c2nc(=O)n(-c3c(C)ccnc3C(C)C)c3nc(-c4ccccc4[N+](=O)[O-])c(Cl)cc23)C[C@H]1C (atropisomer, axis not shown; (M)) [Example 92-36, (M)-6-Chloro-4-[(2S,5R)-2,5-dimethyl-4-prop-2-enoyl-piperazin-1-yl]-1-(2-isopropyl-4-methyl-3-pyridyl)-7-(2-nitrophenyl) pyrido[2,3-d]pyrimidin-2-one]
[1]
  IC50: 0.133 µM
[2]
  IC50: 1.87 µM
[3]
  IC50: 0.275 µM

## C=CC(=O)N1C[C@H](C)N(c2nc(=O)n(-c3c(C)ccnc3C(C)C)c3nc(-c4cc(Br)ccc4F)c(Cl)cc23)C[C@H]1C (atropisomer, axis not shown; (M)) [Example 92-37, (M)-7-(5-Bromo-2-fluoro-phenyl)-6-chloro-4-[(2S,5R)-2,5-dimethyl-4-prop-2-enoyl-piperazin-1-yl]-1-(2-isopropyl-4-methyl-3-pyridyl)pyrido [2,3-d]pyrimidin-2-one]
[1]
  IC50: 0.06 µM
[2]
  IC50: > 7.5 µM
[3]
  IC50: 0.048 µM

## C=CC(=O)N1C[C@H](C)N(c2nc(=O)n(-c3c(C)ccnc3C(C)C)c3nc(-c4cc(C#CC)ccc4F)c(Cl)cc23)C[C@H]1C (atropisomer, axis not shown; (M)) [Example 92-39, (M)-6-Chloro-4-[(2S,5R)-2,5-dimethyl-4-prop-2-enoyl-piperazin-1-yl]-7-(2-fluoro-5-prop-1-ynyl-phenyl)-1-(2-isopropyl-4-methyl-3-pyridyl)pyrido [2,3-d]pyrimidin-2-one]
[1]
  IC50: 0.145 µM
[2]
  IC50: > 7.5 µM
[3]
  IC50: 0.032 µM

## C=CC(=O)N1C[C@H](C)N(c2nc(=O)n(-c3c(C)ccnc3C(C)C)c3nc(-c4c(F)cccc4C#N)c(Cl)cc23)C[C@H]1C (atropisomer, axis not shown; (M)) [Example 92-40, (M)-2-[6-Chloro-4-[(2S,5R)-2,5-dimethyl-4-prop-2-enoyl-piperazin-1-yl]-1-(2-isopropyl-4-methyl-3-pyridyl)-2-oxo-pyrido[2,3-d]pyrimidin-7-yl]-3-fluoro-benzonitrile]
[1]
  IC50: 0.14 µM
[2]
  IC50: > 7.5 µM
[3]
  IC50: 0.244 µM

## C=CC(=O)N1C[C@H](C)N(c2nc(=O)n(-c3c(C)ccnc3C(C)C)c3nc(-c4ccccc4C(C)=O)c(Cl)cc23)C[C@H]1C (atropisomer, axis not shown; (M)) [Example 92-41, (M)-7-(2-Acetylphenyl)-6-chloro-4-[(2S,5R)-2,5-dimethyl-4-prop-2-enoyl-piperazin-1-yl]-1-(2-isopropyl-4-methyl-3-pyridyl)pyrido [2,3-d]pyrimidin-2-one]
[1]
  IC50: 0.075 µM
[2]
  IC50: 3.75 µM
[3]
  IC50: 0.117 µM

## C=CC(=O)N1C[C@H](C)N(c2nc(=O)n(-c3c(C)ccnc3C(C)C)c3nc(-c4ccccc4)c(Cl)cc23)C[C@H]1C (atropisomer, axis not shown; (M)) [Example 92-42, (M)-6-Chloro-4-[(2S,5R)-2,5-dimethyl-4-prop-2-enoyl-piperazin-1-yl]-1-(2-isopropyl-4-methyl-3-pyridyl)-7-phenyl-pyrido[2,3-d]pyrimidin-2-one]
[1]
  IC50: 0.08 µM
[2]
  IC50: > 7.5 µM
[3]
  IC50: 0.117 µM

## C=CC(=O)N1C[C@H](C)N(c2nc(=O)n(-c3c(C)ccnc3C(C)C)c3nc(-c4cc(Cl)ccc4F)c(Cl)cc23)C[C@H]1C (atropisomer, axis not shown; (M)) [Example 92-44, (M)-6-Chloro-7-(5-chloro-2-fluoro-phenyl)-4-[(2S,5R)-2,5-dimethyl-4-prop-2-enoyl-piperazin-1-yl]-1-(2-isopropyl-4-methyl-3-pyridyl)pyrido [2,3-d]pyrimidin-2-one]
[1]
  IC50: 0.098 µM
[2]
  IC50: > 7.5 µM
[3]
  IC50: 0.04 µM

## C=CC(=O)N1C[C@H](C)N(c2nc(=O)n(-c3c(C)ccnc3C(C)C)c3nc(-c4ccccc4C)c(Cl)cc23)C[C@H]1C (atropisomer, axis not shown; (M)) [Example 92-45, (M)-6-Chloro-4-[(2S,5R)-2,5-dimethyl-4-prop-2-enoyl-piperazin-1-yl]-1-(2-isopropyl-4-methyl-3-pyridyl)-7-(o-tolyl)pyrido[2,3-d]pyrimidin-2-one]
[1]
  IC50: 0.023 µM
[2]
  IC50: > 7.5 µM
[3]
  IC50: 0.025 µM

## C=CC(=O)N1C[C@H](C)N(c2nc(=O)n(-c3c(C)ccnc3C(C)C)c3nc(-c4cccc(Cl)c4F)c(Cl)cc23)C[C@H]1C (atropisomer, axis not shown; (M)) [Example 92-46, (M)-6-Chloro-7-(3-chloro-2-fluoro-phenyl)-4-[(2S,5R)-2,5-dimethyl-4-prop-2-enoyl-piperazin-1-yl]-1-(2-isopropyl-4-methyl-3-pyridyl)pyrido [2,3-d]pyrimidin-2-one]
[1]
  IC50: 0.032 µM
[2]
  IC50: > 7.5 µM
[3]
  IC50: 0.023 µM

## C#Cc1ccccc1-c1nc2c(cc1Cl)c(N1C[C@@H](C)N(C(=O)C=C)C[C@@H]1C)nc(=O)n2-c1c(C)ccnc1C(C)C (atropisomer, axis not shown; (M)) [Example 92-47, (M)-6-Chloro-4-[(2S,5R)-2,5-dimethyl-4-prop-2-enoyl-piperazin-1-yl]-7-(2-ethynylphenyl)-1-(2-isopropyl-4-methyl-3-pyridyl)pyrido [2,3-d]pyrimidin-2-one]
[1]
  IC50: 0.049 µM
[2]
  IC50: > 7.5 µM
[3]
  IC50: 0.057 µM

## C#Cc1cccc(-c2nc3c(cc2Cl)c(N2C[C@@H](C)N(C(=O)C=C)C[C@@H]2C)nc(=O)n3-c2c(C)ccnc2C(C)C)c1 (atropisomer, axis not shown; (M)) [Example 92-48, (M)-6-Chloro-4-[(2S,5R)-2,5-dimethyl-4-prop-2-enoyl-piperazin-1-yl]-7-(3-ethynylphenyl)-1-(2-isopropyl-4-methyl-3-pyridyl)pyrido [2,3-d]pyrimidin-2-one]
[1]
  IC50: 0.365 µM
[2]
  IC50: > 7.5 µM
[3]
  IC50: 0.247 µM

## C=CC(=O)N1C[C@H](C)N(c2nc(=O)n(-c3c(C)ccnc3C(C)C)c3nc(-c4cccc(C#CC)c4)c(Cl)cc23)C[C@H]1C (atropisomer, axis not shown; (M)) [Example 92-49, (M)-6-Chloro-4-[(2S,5R)-2,5-dimethyl-4-prop-2-enoyl-piperazin-1-yl]-1-(2-isopropyl-4-methyl-3-pyridyl)-7-(3-prop-1-ynylphenyl) pyrido[2,3-d]pyrimidin-2-one]
[1]
  IC50: 0.328 µM
[2]
  IC50: > 7.5 µM
[3]
  IC50: 0.123 µM

## C=CC(=O)N1C[C@H](C)N(c2nc(=O)n(-c3c(C)ccnc3C(C)C)c3nc(-c4ccccc4Cl)c(Cl)cc23)C[C@H]1C (atropisomer, axis not shown; (M)) [Example 92-51, (M)-6-Chloro-7-(2-chlorophenyl)-4-[(2S,5R)-2,5-dimethyl-4-prop-2-enoyl-piperazin-1-yl]-1-(2-isopropyl-4-methyl-3-pyridyl)pyrido [2,3-d]pyrimidin-2-one]
[1]
  IC50: 0.03 µM
[2]
  IC50: > 7.5 µM
[3]
  IC50: 0.033 µM

— patent US11285156B2, “Substituted piperazines as KRAS G12C inhibitors” (Amgen Inc., priority 2018, dated 2022)
